Non-standard residues stand in square brackets, D forms with d. No end group written: not given here. *: point of attachment. FITC = O=C1OC2(c3ccc(O)cc3Oc3cc(O)ccc32)c2ccc(NC(=S)*)cc21; pY = N[C@@H](Cc1ccc(OP(=O)(O)O)cc1)C(=O)O

This experiment deals with human T cells. Put plainly: Intracellular IFN-γ and TNF-α production by primary human T cells from PBMCs (flow cytometry). The note with it: anti-CD3/anti-CD28 with Brefeldin A, 6 hours; vs vehicle alone. It is filed as cell-based. The method, then:
ITK deficiency is known to enhance the development of regulatory T cells (Tregs) (Elmore et al., 2020, Owen et al., 2019) so the peptide inhibitor was tested to determine whether inhibition of the ITK: SLP76Y145 interactions using SLP76pTYR would induce Tregs. First, the frequency of Tregs was examined by expression of CD4^+ and FoxP3^+ (FIG. 18A). Next, total mouse T cells were stimulated with anti-CD3 (Sugie et al., 2004) in the presence of either SLP76pTYR, nonspecific peptide, or vehicle alone for 5 to 24 hours, and cells were harvested and examined for the presence of Tregs (CD4^+CD25^+FoxP3^+). […] Next, the effects of SLP76pTYR peptide on human PBMC samples from healthy human patients was investigated. T cells from these patients were stimulated with anti-CD3 (OKT3) (Karimi et al., 2005) for 5 minutes in the presence of SLP76pTYR or vehicle alone. […]
More specifically, FIGS. 18A-18F depict Novel peptide SLP76pTYR specifically targets SLP76: ITK signaling and enhances Treg cell development. […] (FIG. 18C) Quantification of three experiments as in (A) (FIG. 18D) Cell lysates were obtained from mouse T cells stimulated with anti-CD3 and anti-CD28 in the presence of SLP76pTYR, or vehicle alone. […] Intracellular IFN-γ and TNF-α expression by CD8^+ and CD4+ T cells was determined by flow cytometry. […]
Background: A flow cytometer gives signals particle by particle.

For the substance “FITC Dye ^132NEEEEAPVEDDADpYEPPPSNDEEA^155-TAT ({FITC}-NEEEEAPVEDDAD[pY]EPPPSNDEEAGRKKRRQRRRPQ) [SLP76pTYR]”, the IFN-γ production entry is “significantly reduced IFN-γ and TNF-α production”; the TNF-α production entry was “significantly reduced IFN-γ and TNF-α production”.
